The compounds below were run on Osteoblasts (Calvarial cells) (assay: Cytotoxicity test (MTT)). Conditions: 1 μM compound, 72 hours, in comparison with vehicle control.

Row | Structure (SMILES) | Cell viability (%) Calvarial cell
1 | CC1=NCCN1c1ccc([N+](=O)[O-])c(Nc2ccc(N3CCC(O)CC3)c(F)c2)n1 [Compound 240, 2-{[3-fluoro-4-(4-hydroxypiperidino)]phenylamino}-6-[(2-methyl-4,5-dihydro)imidazol-1-yl]-3-nitropyridine] | 97%
2 | CC(C)(C)Nc1ccc([N+](=O)[O-])c(Nc2ccc(N3CCC(O)CC3)c(F)c2)n1 [Compound 243, 2-{[3-fluoro-4-(4-hydroxypiperidino)]phenylamino}-6-(t-butylamino)-3-nitropyridine] | 97%
3 | O=[N+]([O-])c1ccc(N2CCNCC2)nc1Nc1ccc(N2CCC(O)CC2)c(F)c1 [Compound 245, 2-{[3-fluoro-4-(4-hydroxypiperidino)]phenylamino}-6-(piperazin-1-yl)-3-nitropyridine] | 101%
4 | O=[N+]([O-])c1ccc(N2CCOCC2)nc1Nc1ccc(N2CCC(O)CC2)c(F)c1 [Compound 247, 2-{[3-fluoro-4-(4-hydroxypiperidino)]phenylamino}-6-morpholino-3-nitropyridine] | 94%
5 | CNc1ccc([N+](=O)[O-])c(Nc2ccc(N3CCC(N)CC3)c(F)c2)n1 [Compound 248, 2-{[3-fluoro-4-(4-aminopiperidino)]phenylamino}-6-(methylamino)-3-nitropyridine] | 95%
6 | CC(C)Nc1ccc([N+](=O)[O-])c(Nc2ccc(N3CCC(N)CC3)c(F)c2)n1 [Compound 249, 2-{[3-fluoro-4-(4-aminopiperidino)]phenylamino}-6-(isopropylamino)-3-nitropyridine] | 101%
7 | CC(C)CNc1ccc([N+](=O)[O-])c(Nc2ccc(N3CCC(N)CC3)c(F)c2)n1 [Compound 250, 2-{[3-fluoro-4-(4-aminopiperidino)]phenylamino}-6-(isobutylamino)-3-nitropyridine] | 85%
8 | NC1CCN(c2ccc(Nc3nc(N4CCC(O)CC4)ccc3[N+](=O)[O-])cc2F)CC1 [Compound 251, 2-{[3-fluoro-4-(4-aminopiperidino)]phenylamino}-6-(4-hydroxypiperidino)-3-nitropyridine] | 97%
9 | CN1CCN(c2ccc([N+](=O)[O-])c(Nc3ccc(N4CCC(N)CC4)c(F)c3)n2)CC1 [Compound 254, 2-{[3-fluoro-4-(4-aminopiperidino)]phenylamino}-6-(4-methylpiperazin-1-yl)-3-nitropyridine] | 101%
10 | NC1CCN(c2ccc(Nc3nc(N4CCOCC4)ccc3[N+](=O)[O-])cc2F)CC1 [Compound 255, 2-{[3-fluoro-4-(4-aminopiperidino)]phenylamino}-6-morpholino-3-nitropyridine] | 100%
11 | NC1CCN(c2ccc([N+](=O)[O-])c(Nc3ccc(N4CCC(N)CC4)c(F)c3)n2)CC1 [Compound 256] | 104%
12 | NC1CCN(c2ccc(Nc3nc(NCCCN4CCOCC4)ccc3[N+](=O)[O-])cc2F)CC1 [Compound 260, 2-{[3-fluoro-4-(4-aminopiperidino)]phenylamino}-6-[(3-morpholin-1-yl)propylamino]-3-nitropyridine] | 107%
13 | CNc1ccc([N+](=O)[O-])c(Nc2ccc(N3CCCCC3C)c(F)c2)n1 (stereo not drawn) [Compound 261, 2-{[3-fluoro-4-(2-methylpiperidino)]phenylamino}-6-(methylamino)-3-nitropyridine] | 114%
14 | CC(C)Nc1ccc([N+](=O)[O-])c(Nc2ccc(N3CCCCC3C)c(F)c2)n1 (stereo not drawn) [Compound 262, 2-{[3-fluoro-4-(2-methylpiperidino)]phenylamino}-6-(isopropylamino)-3-nitropyridine] | 109%
15 | CC(C)CNc1ccc([N+](=O)[O-])c(Nc2ccc(N3CCCCC3C)c(F)c2)n1 (stereo not drawn) [Compound 263, 2-{[3-fluoro-4-(2-methylpiperidino)]phenylamino}-6-(isobutylamino)-3-nitropyridine] | 108%

— US20110306606A1, “NOVEL 2,6-SUBSTITUTED-3-NITROPYRIDINE DERIVATIVE, METHOD FOR PREPARING SAME, AND PHARMACEUTICAL COMPOSITION INCLUDING SAME” (priority 2008, published 2011)
